From article PMC7933930, “Development of a small molecule that corrects misfolding and increases secretion of Z α1‐antitrypsin” (EMBO Molecular Medicine, 2021)

Experiments:
[1] = target: Serotonin transporter (Homo sapiens, UniProt P31645); test: Off‐target panel: Serotonin transporter; assay type: cell-based
Experimental: (§1) GSK716 selectivity and PK properties were profiled in order to investigate the suitability of GSK716 for progression into in vivo studies and the potential for taking it forward as a clinical candidate for testing in humans. Since GSK716 results in loss of inhibitory activity of α1‐antitrypsin, the effect of the compound was assessed on other closely related serpins. […] Furthermore, there were no off‐target effects in a panel of assays considered predictive of known safety liabilities that precluded further development of GSK716 (Table EV1).

[2] = target: Z α1‐antitrypsin (Homo sapiens, UniProt P01009, E366K); test: Circulating monomeric Z α1‐antitrypsin in plasma of Z α1‐antitrypsin transgenic mice; assay type: in vivo, mouse; parameters: random insertion of the human Z α1‐antitrypsin gene; from tissue; host or cells: hemizygous Z α1-antitrypsin transgenic mice (liver, plasma)
Sequence of Z α1‐antitrypsin (P01009 25-418 E366K): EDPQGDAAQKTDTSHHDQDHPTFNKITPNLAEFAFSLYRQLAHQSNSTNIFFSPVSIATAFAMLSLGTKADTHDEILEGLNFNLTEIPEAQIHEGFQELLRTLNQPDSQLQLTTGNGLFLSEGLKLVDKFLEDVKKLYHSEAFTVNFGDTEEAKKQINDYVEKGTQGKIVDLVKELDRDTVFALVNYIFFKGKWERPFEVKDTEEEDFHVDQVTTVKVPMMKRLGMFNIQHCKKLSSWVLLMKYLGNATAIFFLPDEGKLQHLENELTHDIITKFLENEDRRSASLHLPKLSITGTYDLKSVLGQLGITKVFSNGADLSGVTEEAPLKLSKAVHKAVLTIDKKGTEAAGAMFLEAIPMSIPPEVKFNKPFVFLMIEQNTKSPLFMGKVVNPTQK
Experimental: GSK716 was evaluated in a transgenic mouse model with an engineered random insertion of the human Z α1‐antitrypsin gene (Teckman et al, 2004). […] Further, older mice have larger α1‐antitrypsin inclusions that may be more difficult to reverse and any changes would be more difficult to detect than in younger animals. The PK‐PD relationship of GSK716 was explored by dosing Z α1‐antitrypsin transgenic animals with 10, 30 or 100 mg/kg GSK716 three times a day. Blood and liver were harvested on day 6 at 3 h (~ C max) and 8 h (C min) after the dose for the measurement of total and free drug in both tissues. Blood was also harvested for the measurement of monomeric Z α1‐antitrypsin in plasma. Total concentrations of GSK716 were determined by LC‐MS/MS, and the free drug in both tissues was determined using equilibrium dialysis to determine free fraction in the samples, subsequently used to derive unbound concentrations. […] Both free and total drug concentrations of GSK716 at the targeted site of action in the liver were equivalent to those in blood (Table 2).
A significant fraction of the total Z α1‐antitrypsin in the circulation is in the polymeric conformation (Tan et al, 2014). There are no antibodies that are specific for monomeric Z α1‐antitrypsin and so to directly determine its concentration, a deconvolution method was developed based on immunoassays with antibodies for either total or polymeric α1‐antitrypsin, and calibration curves with purified monomeric and polymeric Z α1‐antitrypsin. Monomeric Z α1‐antitrypsin was measured in plasma samples following 6 days of dosing, and levels were normalised to each animals’ pre‐dose control levels to account for the natural variation of Z α1‐antitrypsin between animals. […] Total drug levels and changes in Z α1‐antitrypsin following 3 days of dosing were indistinguishable from those following 6 days of dosing. There was no effect on circulating serum albumin after 5 days of dosing which provides evidence that GSK716 is specific for Z α1‐antitrypsin. Moreover, the effects are not mediated by metabolites of GSK716 as the major metabolites have much reduced or no binding to α1‐antitrypsin.
Plasma standards of monomeric and polymeric Z α1‐antitrypsin were prepared and assayed with an antibody mix comprising a 1:160 dilution of rabbit polyclonal anti‐ α1‐antitrypsin (Abcam product 9373), 0.23 µg/ml terbium anti‐mouse, 4.5 µg/ml Alexa488 goat anti‐rabbit, 0.17 µg/ml mouse anti‐total‐ α1‐antitrypsin monoclonal 3C11 and 2 µg/ml mouse 2C1 anti‐polymeric‐ α1‐antitrypsin. After a 16‐h incubation at 20°C, TR‐FRET detection was performed on an Envision plate reader (Perkin Elmer).
Plots of the FRET ratio (acceptor/donor signal) versus sample dilution result in bell‐shaped curves due to the hook effect. The polymer Z α1‐antitrypsin concentration was determined by comparing the peak positions of these bell‐shaped curves for plasma samples with those for polymer calibration samples. The polymer concentration in the plasma sample and the polymer calibration curve was then used to derive the contribution of polymer to the FRET signal in the total α1‐antitrypsin assay at the signal peak, enabling determination of the concentration of monomeric Z α1‐antitrypsin.
Hemizygous female Z α1‐antitrypsin transgenic mice were 13–15 weeks of age at start of study. Drugs were administered via oral gavage three times a day at 8‐h intervals at 10 ml/Kg as a suspension in aqueous methylcellulose containing 0.5% w/v Tween 80. […]

[3] = target: LCK (Homo sapiens, UniProt P06239); test: Off‐target panel: LCK; assay type: biochemical; settings: Inhibition, read-out: Mean (PXC50)
Sequence of LCK (P06239 whole entry, species assumed): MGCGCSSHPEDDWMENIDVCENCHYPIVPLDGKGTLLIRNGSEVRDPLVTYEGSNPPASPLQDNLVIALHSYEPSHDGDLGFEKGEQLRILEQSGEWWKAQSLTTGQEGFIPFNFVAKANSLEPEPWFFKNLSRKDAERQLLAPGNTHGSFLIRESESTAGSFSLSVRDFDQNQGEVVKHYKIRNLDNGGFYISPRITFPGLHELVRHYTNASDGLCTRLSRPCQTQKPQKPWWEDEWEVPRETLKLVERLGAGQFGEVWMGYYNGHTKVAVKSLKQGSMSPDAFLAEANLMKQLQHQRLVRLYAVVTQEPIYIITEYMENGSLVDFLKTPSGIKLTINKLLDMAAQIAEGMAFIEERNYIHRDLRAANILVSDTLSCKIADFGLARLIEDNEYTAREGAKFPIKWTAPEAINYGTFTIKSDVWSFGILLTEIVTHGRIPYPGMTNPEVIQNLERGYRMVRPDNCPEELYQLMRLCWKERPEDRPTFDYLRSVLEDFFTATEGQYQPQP
Experimental: as §1

[4] = target: Vasopressin V1a (Homo sapiens, UniProt P37288); test: Off‐target panel: Vasopressin V1a; assay type: cell-based; settings: Antagonist, read-out: Mean (PXC50) (converted)
Sequence of Vasopressin V1a (P37288 whole entry): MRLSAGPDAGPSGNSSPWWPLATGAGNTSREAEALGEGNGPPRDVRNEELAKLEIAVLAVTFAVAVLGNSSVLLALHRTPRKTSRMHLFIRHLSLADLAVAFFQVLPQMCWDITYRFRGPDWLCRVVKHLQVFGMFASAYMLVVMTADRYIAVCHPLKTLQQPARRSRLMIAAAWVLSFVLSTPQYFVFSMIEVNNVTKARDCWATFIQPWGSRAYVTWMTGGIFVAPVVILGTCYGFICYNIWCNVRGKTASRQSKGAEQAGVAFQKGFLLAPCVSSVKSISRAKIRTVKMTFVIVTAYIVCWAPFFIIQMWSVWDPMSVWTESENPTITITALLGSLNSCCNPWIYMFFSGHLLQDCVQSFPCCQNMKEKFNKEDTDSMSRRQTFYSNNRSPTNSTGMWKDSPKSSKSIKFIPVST
Experimental: as §1

[5] = target: T1, M α1‐antitrypsin (Homo sapiens, UniProt P01009); test: Stoichiometry of inhibition against chymotrypsin, M α1‐antitrypsin; assay type: biochemical; settings: M α1‐antitrypsin pre‐incubated with GSK716 (50µM), read-out: loss of protease inhibitory activity
T1 construct: purified from the plasma of M (wild‐type) and Z α1‐antitrypsin homozygotes; from tissue; host or cells: human plasma of M (wild-type) homozygotes
T1 sequence (P01009 25-418): as the sequence (P01009 25-418 E366K) above, with K342E counted along it
Experimental: Mutations that interfere with the opening of β‐sheet A or that perturb its interaction with the N‐terminal portion of the reactive centre loop alter the ability of serpins to inhibit target proteases (Hood et al, 1994; Irving et al, 2014). The stoichiometry of inhibition (SI) was determined for M α1‐antitrypsin and Z α1‐antitrypsin in discontinuous experiments against a model target protease, chymotrypsin. The pre‐incubation of both variants with GSK716 led to a > 98% loss of protease inhibitory activity (Fig 5A).
Figure 5 The effect of GSK716 on serpin inhibitory activity • α1‐Antitrypsin was incubated at varying molar ratios with the model protease bovine α‐chymotrypsin, and the residual protease activity determined. […] The position of covalent α1‐antitrypsin‐chymotrypsin complex (cpx), native (nat) and cleaved (clv) is shown. • The inhibitory activity of α1‐antichymotrypsin against chymotrypsin (ach + chym), neuroserpin against trypsin (neus + tryp), and antithrombin against thrombin (atiii + thrombin) was determined in the presence and absence of GSK716. […]
The native state stability of α1‐antitrypsin on addition of compounds was investigated by thermal denaturation in the presence of a 5X concentration of SYPRO Orange dye solution (Life Technologies) (Nettleship et al, 2008). Resistance to heat‐induced polymerisation was determined using an end‐point constant‐temperature assay. […]

Sequence of Serotonin transporter (P31645 whole entry): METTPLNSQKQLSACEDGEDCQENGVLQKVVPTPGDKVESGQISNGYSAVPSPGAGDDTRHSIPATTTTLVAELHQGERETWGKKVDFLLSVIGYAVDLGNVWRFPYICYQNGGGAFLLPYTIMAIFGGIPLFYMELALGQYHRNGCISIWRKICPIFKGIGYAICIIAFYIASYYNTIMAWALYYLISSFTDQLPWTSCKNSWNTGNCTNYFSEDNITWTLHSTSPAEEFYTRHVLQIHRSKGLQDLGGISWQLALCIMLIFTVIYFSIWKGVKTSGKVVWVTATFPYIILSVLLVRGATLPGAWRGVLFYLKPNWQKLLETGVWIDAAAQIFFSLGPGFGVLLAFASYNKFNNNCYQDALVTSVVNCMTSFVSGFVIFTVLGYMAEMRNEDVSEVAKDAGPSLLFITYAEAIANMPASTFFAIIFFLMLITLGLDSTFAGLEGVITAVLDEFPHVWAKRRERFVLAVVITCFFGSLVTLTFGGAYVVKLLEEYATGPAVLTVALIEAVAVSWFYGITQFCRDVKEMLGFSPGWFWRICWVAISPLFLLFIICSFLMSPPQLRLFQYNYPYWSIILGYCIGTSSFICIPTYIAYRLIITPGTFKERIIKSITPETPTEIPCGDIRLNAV

## CCC[C@@H](NC(=O)c1cccc2c1CC(=O)N2)[C@@H](O)c1cccc(F)c1C [GSK716]
[1]
  IC50: > 100 µM
[2]; 10 mg/kg three times a day, oral, 6 days of dosing
  change in circulating Z α1‐antitrypsin: significant, dose‐dependent increases
[2]; 30 mg/kg three times a day, oral, 6 days of dosing
  change in circulating Z α1‐antitrypsin: significant, dose‐dependent increases
[2]; 100 mg/kg three times a day, days 15 and 21 of dosing
  mean increase of monomeric Z α1‐antitrypsin in plasma over pre‐dosing baseline: sevenfold to eightfold
[2]; 100 mg/kg three times a day, oral, 6 days of dosing
  mean increase in circulating monomeric Z α1‐antitrypsin levels over pre‐dose: sevenfold
[2]; Z α1‐antitrypsin transgenic mice, within 3 days
  increase in circulating levels of Z α1‐antitrypsin: sevenfold
[3]
  IC50: > 31.6 µM
[4]
  IC50: 39.8 µM
[5]
  inhibition at 50 µM: > 98%
